According to patent publication US20230149560A1, “LIPID COMPOSITIONS FOR DELIVERY OF STING AGONIST COMPOUNDS AND USES THEREOF” (priority 2020, published 2023):

Legend:
MC38 tumors = assay: MC38 flank tumor model, single intravenous dose; format: in vivo, mouse; conditions: for tumor burden: MC38, single iv dose day 7: LND 1 5 nmol CDN, parent CDN 5 or 100 nmol, ADU-S100 100 nmol
Experimental: Specifically, a single intravenous injection of LND 1 prepared as described in Example 3 was compared to intravenous injection of parent CDN for effects on tumor growth in a mouse model of colon adenocarcinoma. Tumors were established in 8-10 week old C57BL/6 mice by inoculating the right flank with a subcutaneous injection of 5x10^5 MC38 cells suspended in PBS. On day 7 post-inoculation, the mice were administered an intravenous injection of either parent CDN or LND-formulated CDN at a dose of 5 nmol CDN. Tumor area was measured on days 7, 10, and 12 and compared to untreated mice that received an intratumoral injection of PBS on day 7. The mice were then sacrificed on day 13, and excised tumors were weighed.
Mice were inoculated with MC38 tumors as described above. On day 7 post tumor inoculation, mice were administered a single intravenous injection of parent CDN at a dose of 5 nmol (n=5) or 100 nmol (n=10), ADU-S100 at a dose of 100 nmol (n=10), or LND 1 at a dose of 5 nmol CDN (n=20). Following administration, tumor growth and animal survival was monitored and compared to untreated mice that received an injection of PBS.
It was further investigated whether intravenous administration of LND-formulated CDN was effective in treating well-established MC38 tumors. Specifically, MC38 tumors were allowed to grow for 10 days post-inoculation (mean size of about 45 mm^2), whereupon a single intravenous dose of LND 1 was administered (5 nmol CDN). Control mice were administered PBS only. […] Though mice administered LND-formulated CDN experience some weight loss (about 10% body weight), they recovered full body weight within about 5 days of administration (data not shown).
Systemic administration of LND or liposome particles comprising CDN-PEG-Lipid was compared in the MC38 tumor model. […] The effect on tumor area and survival was evaluated and compared to untreated mice receiving an injection of PBS alone. Tumor size was measured by area (longest dimension x perpendicular dimension) and the mice were euthanized when the tumor area exceeded 150 mm^2 or tumor ulceration became severe.

4T1-Luc tumor = assay: Orthotopic 4T1 tumor model, single intravenous dose; format: in vivo, mouse; conditions: 4T1 orthotopic, single iv day 7: LND 1 10 nmol CDN; parent CDN 200 nmol
Experimental: To evaluate therapeutic efficacy in the aggressive 4T-1 orthotopic tumors, BALB/c mice were inoculated with 5 x 10^5 4T1-Luc tumor cells that were injected into the fourth mammary fat-pad. At 7 days post tumor inoculation, mice were administered CDN formulated as LND 1 at a dose of 10 nmol CDN or parent CDN at a dose of 200 nmol CDN per mouse by intravenous injection. Control mice were administered PBS only.

CCN(CC)CC.Nc1nc2c(ncn2[C@@H]2O[C@@H]3COP(=O)(S)O[C@H]4[C@H]5OC[C@]4(COP(=O)(O)O[C@@H]2[C@@H]3O)O[C@H]5n2cnc3c(N)ncnc32)c(=O)[nH]1 (stereo partly shown) [parent CDN]
tumor area and mass (MC38 tumors; MC38, single iv 5 nmol CDN on day 7, area days 7-12, weight day 13, vs untreated): no effect
tumor burden (MC38 tumors): no reduction of tumor burden
tumor growth and survival (4T1-Luc tumor): no impact on tumor growth or overall survival

Nc1ncnc2c1ncn2[C@@H]1O[C@@H]2COP(O)(=S)O[C@@H]3C(O)[C@@H](COP(O)(=S)O[C@H]2[C@H]1O)O[C@H]3n1cnc2c(N)ncnc21 (stereo partly shown) [ADU-S100, dithio-(Rp, Rp)-[cyclic[A(2′,5′)pA(3′,5′)p]], reference compound]
tumor burden (MC38 tumors): no reduction of tumor burden
